# Laboratory results taken from patent publication US4385058A, “Pyrimidone derivatives” (Smith Kline & French Laboratories Limited, priority 1980, dated 1983).
# Test system: histamine H2 -receptors
# Test: Inhibition of histamine-stimulated acid secretion in the Heidenhain pouch dog
# Assay type: in vivo
# Details: intravenous administration; dose levels adjusted to produce similar peak responses
# Text: Heidenhain pouch dogs can be prepared and used as described in European Specification No. 15138.
smiles,measurement,value
"Cc1ccc(Cc2cnc(NCCSCc3cc(CN(C)C)ccn3)[nH]c2=O)cn1 [Example 1, 2-[2-(4-dimethylaminomethyl-2-pyridylmethylthio)ethylamino]-5-(6-methyl-3-pyridylmethyl)-4-pyrimidone]",duration of activity versus cimetidine,longer duration of activity than cimetidine
